Laboratory results from patent US9163256B2, “Mutant receptors and their use in a nuclear receptor-based inducible gene expression system” (priority 2004, dated 2015).

Legend:
Assay in all cases: GAL4-driven luciferase reporter assay in NIH3T3 cells
Type in all cases: cell-based
CfEcR-DEF mutant F48K = CfEcR-DEF mutant F48K (Choristoneura fumiferana, UniProt O77255, F331K); details: for Emax: NIH3T3, 40 h, read-out: Rel Max FI
Experimental: (§1) This construct was prepared in the same way as in switch 1.1 above except wild-type CfEcR-DEF was replaced with mutant CfEcR-DEF comprising a ligand binding domain comprising a substitution mutation selected from Table 1 below.
(§2) DNAs were transfected into mouse NIH3T3 cells (ATCC) as follows. Standard methods for culture and maintenance of the cells were followed. Cells were harvested and plated 96-well plates at 2,500 cells per well, in 50 μL of growth medium containing 10% fetal bovine serum (FBS). Twenty-four hours later, the cells were treated with 35 μL of serum-free growth medium containing either dimethylsulfoxide (DMSO; control) or a DMSO solution of ligand. The cells were then transfected using Superfect (Qiagen Inc.) transfection reagent. For each well, 0.625 μL of Superfect was mixed with 14.2 μL of serum-free growth medium. 0.16 μg of reporter construct and 0.04 μg of each receptor construct were added to the transfection reagent mix. The contents of the transfection mix were mixed in a vortex mixer and let stand at room temperature for 30 minutes. At the end of incubation, 15 μL of transfection mix was added to the cells. The cells were maintained at 37° C. and 5% CO2 for 48 hours in 5% FBS.
(§3) Reporter Assays: Cells were harvested 40 hours after adding ligands. 125 μL of passive lysis buffer (part of Dual-Luciferase reporter assay system from Promega Corporation) were added to each well of the […] plate. The plates were placed on a rotary shaker for 15 minutes. Twenty μL of lysate were assayed. Luciferase activity was measured using Dual-Luciferase reporter assay system from Promega Corporation following the manufacturer's instructions. Fold induction (FI) activities were calculated by dividing relative light units (“RLU”) in ligand treated cells with RLU in DMSO treated cells (untreated control).

CfEcR-DEF mutant M219A = CfEcR-DEF mutant M219A (Choristoneura fumiferana, UniProt O77255, M502A); details: for Emax: NIH3T3, 40 h, read-out: Rel Max FI
Experimental: as §1, §2, §3

CfEcR-DEF mutant T52G = CfEcR-DEF mutant T52G (Choristoneura fumiferana, UniProt O77255, T335G); details: for Emax: NIH3T3, 40 h, read-out: Rel Max FI
Chain of CfEcR-DEF mutant T52G (O77255 entry or part of it T335G): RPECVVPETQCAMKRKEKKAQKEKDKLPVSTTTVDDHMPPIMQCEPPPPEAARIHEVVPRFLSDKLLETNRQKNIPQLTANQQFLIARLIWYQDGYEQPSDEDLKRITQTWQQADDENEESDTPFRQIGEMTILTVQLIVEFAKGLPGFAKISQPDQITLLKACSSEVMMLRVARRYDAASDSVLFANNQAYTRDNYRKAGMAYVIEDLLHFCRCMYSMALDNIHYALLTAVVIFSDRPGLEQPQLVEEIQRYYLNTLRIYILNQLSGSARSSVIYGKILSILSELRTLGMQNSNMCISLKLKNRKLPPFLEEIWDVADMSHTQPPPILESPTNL
Chain of CfEcR-DEF mutant T52G (P28702 298-449, further chain): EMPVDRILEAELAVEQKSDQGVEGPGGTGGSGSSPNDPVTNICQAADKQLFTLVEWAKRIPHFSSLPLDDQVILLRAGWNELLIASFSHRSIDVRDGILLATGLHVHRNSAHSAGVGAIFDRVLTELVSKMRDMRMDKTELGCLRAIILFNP
Experimental: as §1, §2, §3

CfEcR-DEF mutant M125V = CfEcR-DEF mutant M125V (Choristoneura fumiferana, UniProt O77255, M408V); details: for Emax: NIH3T3, 40 h, read-out: Rel Max FI
Chain of CfEcR-DEF mutant M125V (O77255 entry or part of it M408V): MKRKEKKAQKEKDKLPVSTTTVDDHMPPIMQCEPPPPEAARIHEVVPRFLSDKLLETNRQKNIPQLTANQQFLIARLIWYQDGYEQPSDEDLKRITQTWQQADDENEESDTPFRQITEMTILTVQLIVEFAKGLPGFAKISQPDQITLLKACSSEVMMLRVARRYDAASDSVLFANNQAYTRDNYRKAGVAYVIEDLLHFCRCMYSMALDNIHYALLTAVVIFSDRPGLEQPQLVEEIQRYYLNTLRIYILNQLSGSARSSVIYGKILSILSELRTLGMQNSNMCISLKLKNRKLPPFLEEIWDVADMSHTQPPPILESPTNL
Chain of CfEcR-DEF mutant M125V (P28702 299-449, further chain): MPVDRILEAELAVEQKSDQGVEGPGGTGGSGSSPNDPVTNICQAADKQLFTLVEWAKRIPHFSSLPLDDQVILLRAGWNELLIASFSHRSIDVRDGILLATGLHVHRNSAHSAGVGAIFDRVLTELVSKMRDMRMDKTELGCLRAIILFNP
Experimental: as §1, §2, §3

CfEcR-DEF mutant M219K = CfEcR-DEF mutant M219K (Choristoneura fumiferana, UniProt O77255, M502K); details: for Emax: NIH3T3, 40 h, read-out: Rel Max FI
Experimental: as §1, §2, §3

CfEcR-DEF mutant M125G = CfEcR-DEF mutant M125G (Choristoneura fumiferana, UniProt O77255, M408G)
Experimental: as §1, §2, §3

CfEcR-DEF mutant L234W = CfEcR-DEF mutant L234W (Choristoneura fumiferana, UniProt O77255, L517W); details: for Emax: NIH3T3, 40 h, read-out: Rel Max FI
Chain of CfEcR-DEF mutant L234W (O77255 entry or part of it L517W): as the sequence (O77255 entry or part of it T335G) above, with G129T, L311W counted along it
Chain of CfEcR-DEF mutant L234W (P28702 299-449, further chain): as the sequence (P28702 299-449, further chain) above
Experimental: as §1, §2, §3

CfEcR-DEF mutant F48R = CfEcR-DEF mutant F48R (Choristoneura fumiferana, UniProt O77255, F331R); details: for Emax: NIH3T3, 40 h, read-out: Rel Max FI
Chain of CfEcR-DEF mutant F48R (O77255 entry or part of it F331R): as the sequence (O77255 entry or part of it T335G) above, with F125R, G129T counted along it
Chain of CfEcR-DEF mutant F48R (P28702 299-449, further chain): as the sequence (P28702 299-449, further chain) above
Experimental: as §1, §2, §3

CfEcR-DEF mutant M125I = CfEcR-DEF mutant M125I (Choristoneura fumiferana, UniProt O77255, M408I); details: for Emax: NIH3T3, 40 h, read-out: Rel Max FI
Experimental: as §1, §2, §3

CfEcR-DEF mutant M219W = CfEcR-DEF mutant M219W (Choristoneura fumiferana, UniProt O77255, M502W); details: for Emax: NIH3T3, 40 h, read-out: Rel Max FI
Experimental: as §1, §2, §3

CfEcR-DEF mutant L223K = CfEcR-DEF mutant L223K (Choristoneura fumiferana, UniProt O77255, L506K); details: for Emax: NIH3T3, 40 h, read-out: Rel Max FI
Experimental: as §1, §2, §3

CfEcR-DEF mutant L223R = CfEcR-DEF mutant L223R (Choristoneura fumiferana, UniProt O77255, L506R); details: for Emax: NIH3T3, 40 h, read-out: Rel Max FI
Chain of CfEcR-DEF mutant L223R (O77255 entry or part of it L506R): as the sequence (O77255 entry or part of it M408V) above, with V190M, L288R counted along it
Chain of CfEcR-DEF mutant L223R (P28702 299-449, further chain): as the sequence (P28702 299-449, further chain) above
Experimental: as §1, §2, §3

CfEcR-DEF mutant T52W = CfEcR-DEF mutant T52W (Choristoneura fumiferana, UniProt O77255, T335W)
Chain of CfEcR-DEF mutant T52W (O77255 entry or part of it T335W): as the sequence (O77255 entry or part of it M408V) above, with T117W, V190M counted along it
Chain of CfEcR-DEF mutant T52W (P28702 299-449, further chain): as the sequence (P28702 299-449, further chain) above
Experimental: as §1, §2, §3

CfEcR-DEF mutant L132E = CfEcR-DEF mutant L132E (Choristoneura fumiferana, UniProt O77255, L415E); details: for Emax: NIH3T3, 40 h, read-out: Rel Max FI
Chain of CfEcR-DEF mutant L132E (O77255 entry or part of it L415E): as the sequence (O77255 entry or part of it T335G) above, with G129T, L209E counted along it
Chain of CfEcR-DEF mutant L132E (P28702 298-449, further chain): as the sequence (P28702 298-449, further chain) above
Experimental: as §1, §2, §3

CfEcR-DEF mutant W238M = CfEcR-DEF mutant W238M (Choristoneura fumiferana, UniProt O77255, W521M); details: for Emax: NIH3T3, 40 h, read-out: Rel MaxFI
Experimental: as §1, §2, §3

CfEcR-DEF mutant L223Y = CfEcR-DEF mutant L223Y (Choristoneura fumiferana, UniProt O77255, L506Y); details: for Emax: NIH3T3, 40 h, read-out: Rel Max FI
Experimental: as §1, §2, §3

CfEcR-DEF mutant L234R = CfEcR-DEF mutant L234R (Choristoneura fumiferana, UniProt O77255, L517R); details: for Emax: NIH3T3, 40 h, read-out: Rel Max FI
Chain of CfEcR-DEF mutant L234R (O77255 entry or part of it L517R): as the sequence (O77255 entry or part of it T335G) above, with G129T, L311R counted along it
Chain of CfEcR-DEF mutant L234R (P28702 299-449, further chain): as the sequence (P28702 299-449, further chain) above
Experimental: as §1, §2, §3

CfEcR-DEF mutant T52R = CfEcR-DEF mutant T52R (Choristoneura fumiferana, UniProt O77255, T335R); details: for Emax: NIH3T3, 40 h, read-out: Rel Max FI
Experimental: as §1, §2, §3

CfEcR-DEF mutant I51M = CfEcR-DEF mutant I51M (Choristoneura fumiferana, UniProt O77255, I334M); details: for Emax: NIH3T3, 40 h, read-out: Rel Max FI
Experimental: as §1, §2, §3

CfEcR-DEF mutant W238L = CfEcR-DEF mutant W238L (Choristoneura fumiferana, UniProt O77255, W521L); details: for Emax: NIH3T3, 40 h, read-out: Rel Max FI
Experimental: as §1, §2, §3

CfEcR-DEF mutant M125S = CfEcR-DEF mutant M125S (Choristoneura fumiferana, UniProt O77255, M408S)
Experimental: as §1, §2, §3

CfEcR-DEF mutant M125N = CfEcR-DEF mutant M125N (Choristoneura fumiferana, UniProt O77255, M408N)
Experimental: as §1, §2, §3

CfEcR-DEF mutant T52M = CfEcR-DEF mutant T52M (Choristoneura fumiferana, UniProt O77255, T335M); details: for Emax: NIH3T3, 40 h, read-out: Rel MaxFI
Chain of CfEcR-DEF mutant T52M (O77255 entry or part of it T335M): as the sequence (O77255 entry or part of it T335G) above, with G129M counted along it
Chain of CfEcR-DEF mutant T52M (P28702 298-449, further chain): as the sequence (P28702 298-449, further chain) above
Experimental: as §1, §2, §3

CfEcR-DEF mutant T52Q = CfEcR-DEF mutant T52Q (Choristoneura fumiferana, UniProt O77255, T335Q); details: for Emax: NIH3T3, 40 h, read-out: Rel Max FI
Experimental: as §1, §2, §3

CfEcR-DEF mutant M219Y = CfEcR-DEF mutant M219Y (Choristoneura fumiferana, UniProt O77255, M502Y); details: for Emax: NIH3T3, 40 h, read-out: Rel Max FI
Experimental: as §1, §2, §3

CCCCC(N(NC(=O)c1ccc(CC)cc1)C(=O)c1cc(C)cc(C)c1)C(C)(C)C (centres unmarked) [RG-115840, 3,5-dimethyl-benzoic acid N-(1-tert-butyl-pentyl)-N′-(4-ethyl-benzoyl)-hydrazide]
EC50 (CfEcR-DEF mutant F48K): 3.76 µM | Emax (CfEcR-DEF mutant F48K): 18% | EC50 (CfEcR-DEF mutant M219A): 2.87 µM | Emax (CfEcR-DEF mutant M219A): 60% | EC50 (CfEcR-DEF mutant T52G): 3.61 µM | Emax (CfEcR-DEF mutant T52G): 23% | EC50 (CfEcR-DEF mutant M125V): 3.79 µM | Emax (CfEcR-DEF mutant M125V): 47% | EC50 (CfEcR-DEF mutant M219K): > 33 µM | Emax (CfEcR-DEF mutant M219K): 1% | EC50 (CfEcR-DEF mutant M125G): 2.97 µM | EC50 (CfEcR-DEF mutant L234W): > 33 µM | Emax (CfEcR-DEF mutant L234W): 6% | EC50 (CfEcR-DEF mutant F48R): 3.58 µM | Emax (CfEcR-DEF mutant F48R): 265% | EC50 (CfEcR-DEF mutant M125I): 3.02 µM | Emax (CfEcR-DEF mutant M125I): 45% | EC50 (CfEcR-DEF mutant M219W): 2.33 µM | Emax (CfEcR-DEF mutant M219W): 39% | EC50 (CfEcR-DEF mutant L223K): 1 µM | Emax (CfEcR-DEF mutant L223K): 93% | EC50 (CfEcR-DEF mutant L223R): 2 µM | Emax (CfEcR-DEF mutant L223R): 25% | EC50 (CfEcR-DEF mutant T52W): 4.07 µM | EC50 (CfEcR-DEF mutant L132E): 1.67 µM | Emax (CfEcR-DEF mutant L132E): 156% | EC50 (CfEcR-DEF mutant W238M): 2 µM | Emax (CfEcR-DEF mutant W238M): 41% | EC50 (CfEcR-DEF mutant L223Y): 0.58 µM | Emax (CfEcR-DEF mutant L223Y): 142% | EC50 (CfEcR-DEF mutant L234R): 20 µM | Emax (CfEcR-DEF mutant L234R): 224% | EC50 (CfEcR-DEF mutant T52R): > 33 µM | Emax (CfEcR-DEF mutant T52R): 2% | EC50 (CfEcR-DEF mutant I51M): 4.13 µM | Emax (CfEcR-DEF mutant I51M): 27% | EC50 (CfEcR-DEF mutant W238L): 2 µM | Emax (CfEcR-DEF mutant W238L): 41% | EC50 (CfEcR-DEF mutant M125S): 1.4 µM | EC50 (CfEcR-DEF mutant M125N): 3.3 µM | EC50 (CfEcR-DEF mutant T52M): 5 µM | Emax (CfEcR-DEF mutant T52M): 15% | EC50 (CfEcR-DEF mutant T52Q): 2 µM | Emax (CfEcR-DEF mutant T52Q): 34% | EC50 (CfEcR-DEF mutant M219Y): 1 µM | Emax (CfEcR-DEF mutant M219Y): 68%

CCc1c(C(=O)NN(C(=O)c2cc(OC)c(C)c(OC)c2)C(C=C(C)C(C)(C)C)C(C)(C)C)ccc2c1OCCO2 (centres unmarked) [RG-115898, 3,5-dimethoxy-4-methyl-benzoic acid N-(1-tert-butyl-3,4,4-trimethyl-pent-2-enyl)-N′-(5-ethyl-2,3-dihydro-benzo[1,4]dioxine-6-carbonyl)-hydrazide]
EC50 (CfEcR-DEF mutant F48K): > 33 µM | Emax (CfEcR-DEF mutant F48K): 8% | EC50 (CfEcR-DEF mutant M219A): 1 µM | Emax (CfEcR-DEF mutant M219A): 5% | EC50 (CfEcR-DEF mutant T52G): > 33 µM | Emax (CfEcR-DEF mutant T52G): 1% | EC50 (CfEcR-DEF mutant M125V): > 33 µM | Emax (CfEcR-DEF mutant M125V): 1% | EC50 (CfEcR-DEF mutant M219K): > 33 µM | Emax (CfEcR-DEF mutant M219K): 0% | EC50 (CfEcR-DEF mutant M125G): 0.08 µM | EC50 (CfEcR-DEF mutant L234W): > 33 µM | Emax (CfEcR-DEF mutant L234W): 2% | EC50 (CfEcR-DEF mutant F48R): > 33 µM | Emax (CfEcR-DEF mutant F48R): 0% | EC50 (CfEcR-DEF mutant M125I): > 33 µM | Emax (CfEcR-DEF mutant M125I): 0% | EC50 (CfEcR-DEF mutant M219W): > 33 µM | Emax (CfEcR-DEF mutant M219W): 0% | Emax (CfEcR-DEF mutant L223K): 18% | EC50 (CfEcR-DEF mutant L223R): > 33 µM | Emax (CfEcR-DEF mutant L223R): 1% | EC50 (CfEcR-DEF mutant T52W): 0.18 µM | Emax (CfEcR-DEF mutant T52W; NIH3T3, 40 h, read-out: Rel Max FI): 424% | EC50 (CfEcR-DEF mutant L132E): 2.15 µM | Emax (CfEcR-DEF mutant L132E): 34% | EC50 (CfEcR-DEF mutant W238M): > 33 µM | Emax (CfEcR-DEF mutant W238M): 3% | EC50 (CfEcR-DEF mutant L223Y): 0.33 µM | Emax (CfEcR-DEF mutant L223Y): 20% | EC50 (CfEcR-DEF mutant L234R): > 33 µM | Emax (CfEcR-DEF mutant L234R): 58% | EC50 (CfEcR-DEF mutant T52R): > 33 µM | Emax (CfEcR-DEF mutant T52R): 0% | EC50 (CfEcR-DEF mutant I51M): > 33 µM | Emax (CfEcR-DEF mutant I51M): 2% | EC50 (CfEcR-DEF mutant W238L): > 33 µM | Emax (CfEcR-DEF mutant W238L): 0% | EC50 (CfEcR-DEF mutant M125S): 0.33 µM | EC50 (CfEcR-DEF mutant M125N): 0.94 µM | EC50 (CfEcR-DEF mutant T52M): > 33 µM | Emax (CfEcR-DEF mutant T52M): 1% | EC50 (CfEcR-DEF mutant T52Q): 20 µM | Emax (CfEcR-DEF mutant T52Q): 8% | EC50 (CfEcR-DEF mutant M219Y): > 33 µM | Emax (CfEcR-DEF mutant M219Y): 1%
